# Measured values: patent US7727550B2, “Biologically active native biomatrix composition” (The UAB Research Foundation, priority 2003, dated 2010)
# Assays:
# [1] = system: human umbilical vascular endothelial cells (HUVEC); assay: HUVEC culture on two-dimensional biomatrix environments; assay type: cell-based; conditions: FGF 15 ng/ml, two-dimensional HuBiogel matrix
# Procedure: […] The specific morphological changes in the monolayer HUVEC cultures was examined after 72 hrs incubation on each biomatrix environment. HUVECs cultured on plastic or purified collagen I grew poorly (<60% viability). […] Tubular capillary formation is confirmed by cross-sectional electron microscopy showing distinct lumen.
# [2] = system: HUVEC; assay: HUVEC migration and differentiation in three-dimensional HuBiogel disc culture system; assay type: cell-based, human; conditions: FGF 60 ng/ml added day 0, 5 mg/ml HuBiogel disc, 50 um pore size
# Procedure: Endothelial cells were cultured under standard conditions. On day 0, FGF (60 ng/ml) was added to the culture and incubation continued. At the indicated times, cell morphology was examined and documented. […] There is no differentiation of the cells until the day 5-day 7 time period. After day 7, obvious differentiation as indicated by sprout formation/capillary formation can be seen. […] Such a temporally discrete timing of the activation migration and differentiation steps make the use of this system ideal for studying the biochemical mechanisms involved in each step, as well as isolating potential inhibitors of the mechanisms identified. This time dependent, temporally isolated sequence of events is in contrast to that seen with Matrigel, where differentiation events occur rapidly in the absence of added growth factors and/or growth stimulants.
# [3] = system: mesenchymal stem cells (MSC); assay: Mesenchymal stem cell culture on HuBiogel; assay type: cell-based; conditions: NGF 15 ng/ml
# Procedure: Other cell type may also be grown on HuBiogel™ matrices, with the above being exemplary in nature only. Theses other cell types include neurons, hepatocytes, sertoli cells and the like. For Example, FIGS. 11A and B show glioma cells cultured on HuBiogel™ containing matrices. […] FIGS. 12A and B show mesenchymal stem cells (MSC) cells cultured on HuBiogel™ in the presence (FIG. 12B) and absence of 15 ng/ml NGF (FIG. 12A).
Substance,HUVEC differentiation on HuBiogel enriched with growth factor [1],"growth factor induced HUVEC activation, migration and differentiation [2]",neuronal differentiation of MSC on HuBiogel [3]
"FGF: fibroblast growth factor, purified angiogenic factor added to HuBiogel",rapid formation of tubule-like structures,"induced a time dependent series of cellular activation, migration and differentiation steps",
NGF: nerve growth factor,,,neuronal differentiation occurred only in the presence of NGF
